Source: patent US8017584B2, “GD3-mimetic peptides” (Otsuka Pharmaceutical Co., Ltd., priority 2000, dated 2011)
Several values for one entry are separate records, joined by “and”; a condition that tells them apart may be missing. Equal values may be shown once.

Tests used:
[1] = tested on: binding between GD3 and 4F6 (anti-GD3 antibody); test: Inhibition by immobilized MAPs of binding between GD3 and 4F6 (Example 5(3), FIG. 4); parameters: species or system mouse; conditions: immobilized MAP or GD3 absorbs 4F6
Protocol: (3) The binding affinity shown in FIG. 3 was investigated in another method. Briefly, MAP samples having a variety of concentrations shown on the X-axis in FIG. 4 were provided. Each sample was immobilized onto the wells of a 96-well plate, and the wells were allowed to react with 4F6 (100 μL/well) at 4° C. overnight. On the following day, the supernatant (80 μL) was collected and added to the wells of another plate to which GD3 had been immobilized in advance (100 ng/well) for reaction at room temperature for 2 hours. After completion of reaction, the amount of antibody 4F6 that had been condensed with GD3 (i.e., that had not been absorbed by MAP) was detected and quantitatively determined through the method described (2) above, whereby inhibitory effect of MAP on binding of GD3 to 4F6 was investigated. The test was performed in triplicate, and the values in the graph are “mean ±SD.”

[2] = tested on: binding between GD3 and 4F6; test: Inhibition by exogenously added MAPs of binding between GD3 and 4F6 (Example 5(4), FIG. 5); parameters: species or system mouse
Protocol: (4) Next, investigation was made as to whether binding between GD3R3 or GD3R4 and 4F6 occurred at the GD3 binding site of 4F6. To the wells of a plate to which GD3 had been immobilized (100 ng/well), each of the MAP samples having a variety of concentrations shown on the X-axis in FIG. 5 and 4F6 (100 μL/well) were simultaneously added, whereby an inhibitory test was performed. The test was performed in triplicate, and the values in the graph are “mean ±SD.”

GD3 antibody 4F6 = test: ELISA of immobilized phage clones with GD3 antibody 4F6 (Example 2); assay type: binding, mouse; conditions: for absorbance OD450-OD620, binding to GD3 antibody 4F6: phage clone immobilized, duplicate lines
Protocol: A 0.1M NaHCO3 solution containing each of the phage clones obtained in Example 1 (10^11, 10^10, or 10^9 titer/100 μL) was added to the wells of a 96-well microtiter plate (product of Nunc), for immobilization of the phage clones at room temperature for one hour. The supernatant was removed, then the wells were subjected to blocking by use of a blocking solution ([…]; TBS containing 1% BSA, 0.1% skim milk, and 0.02% Tween 20; pH 7.5) at 37° C. for four hours.
The supernatant was removed, then GD3 antibody 4F6 (100 μL), serving as a primary antibody, was added to each well for reaction under shaking at room temperature for two hours. After completion of reaction, the supernatant was removed, then the wells were washed six times with a washing solution (400 μL for each well, TBS containing 0.05% Tween 20). Subsequently, a secondary antibody (anti-mouse IgG-HRP, product of Santa Cruz Biotechnology, catalogue No. SC-2031, Lot. No. C089) which was diluted 5,000-fold by use of a blocking solution prepared in advance was added to the wells (100 μL to each well) for reaction under shaking at room temperature for one hour. After completion of reaction, the wells were washed four times with a washing solution (400 μL for each well), then a detection reagent (TMB Microwell; product of KPL, Catalogue No. 50-76-04, Lot. No. WF075) was added to the wells (100 μL to each well), and the mixture was allowed to stand for five minutes at room temperature.
1N-Hydrochloric acid (100 μL) was added to each well for stopping the reaction. Absorbance of each well was measured at 450 nm and 620 nm, and “OD450-OD620” was calculated. A Multiscan (product of Labosystems) was used in measurement of absorbance. A well in which phages had not been immobilized served as a blank, and the absorbance of each well was determined by subtracting the blank value from the “as-measured” value.

[3] = tested on: T-cell-rich lymphocytes / IL-2-dependent CTLL2 cells; test: Cell response test: IL-2 activity (3H thymidine up-take of CTLL2 cells) in supernatant of spleen cells of mice immunized with GD3; assay type: cell-based, mouse; conditions: for 3H Thymidine up-take into CTLL2 cells, mean ± SE (4 wells): mice immunized with GD3
Protocol: Similar to the case of immunization with R4-KLH, antiserum samples were also prepared through immunization with GD3 (30 μg).
(§1) The spleen aseptically removed from each of the above-immunized mice was minced in a 10% FCS-supplemented RPMI 1640 medium. By use of a nylon wool column, T-cell-rich lymphocytes were prepared and the cells were counted. The above medium containing the cells in an amount of 10^5 cells per 150 μL was added to each of the wells of a culture plate. PHA was added so as to attain a final concentration of 1 μg/mL. A peptide of the present invention or any of different gangliosides in PBS was added, and the mixture was incubated for 96 hours. A supernatant (100 μL) was obtained from each well. The IL-2 activity of the supernatant was determined through use of IL-2-dependent mouse cells, CTLL2. Briefly, the supernatant (100 μL) diluted 2 to 50-fold with a medium was added to the wells in an amount of 10^4 CTLL2 cells/well, followed by incubation at 37° C. for 48 hours. Subsequently, 3H-thymidine (0.5 μCi) was added to each well, followed by incubation for 6 hours. CTLL2 cells were recovered on a paper filter and counted for 3H.

[4] = tested on: T-cell-rich lymphocytes / IL-2-dependent CTLL2 cells; test: Cell response test: IL-2 activity (3H thymidine up-take of CTLL2 cells) in supernatant of spleen cells of mice immunized with R4 peptide (R4-KLH); assay type: cell-based, mouse; conditions: for 3H Thymidine up-take into CTLL2 cells, mean ± SE (4 wells): mice immunized with R4 peptide
Protocol: Using a fusion peptide R4-KLH obtained in Example 3 (4) between GD3R4 and KLH or a MAP form fusion peptide R4MAP-KLH created between GD3R4 and KLH, immunization was performed as described in (1) above.
Briefly, an emulsion mixed with an adjuvant (1:1, by volume) was administered to each member of groups of mice, each group consisting of 3 mice (CD-1), in an amount of 100 μL/mouse (for one administration (ip), peptide 30 μg/mouse) for immunization. In the case of R4-KLH, administration was performed every one week for one month, and subsequently every two weeks for one month; and in the case of R4MAP-KLH, every one week for 2 months. In any case, 4 days after the final immunization, blood was collected to thereby prepare antiserum samples.
as §1

[5] = stimulant 1 μg/ml, supernatant dilution 1/20
[6] = stimulant 1 μg/ml, supernatant dilution 1/50
[7] = stimulant 1 μg/ml, supernatant dilution ½
[8] = stimulant 1 μg/ml, supernatant dilution ⅕
[9] = stimulant 2 μg/ml, supernatant dilution 1/20
[10] = stimulant 2 μg/ml, supernatant dilution 1/50
[11] = stimulant 2 μg/ml, supernatant dilution ½
[12] = stimulant 2 μg/ml, supernatant dilution ⅕
[13] = stimulant 5 μg/ml, supernatant dilution 1/20
[14] = stimulant 5 μg/ml, supernatant dilution 1/50
[15] = stimulant 5 μg/ml, supernatant dilution ½
[16] = stimulant 5 μg/ml, supernatant dilution ⅕

Sequence: RHAYRSMAEWGFLYS (RHAYRSMAQWGFLYS) [GD3R4, tested as phage clone, MAP form or peptide]
- inhibition of GD3 binding to 4F6 by immobilized sample (words, FIG. 4) [1]: inhibit GD3 from binding to the antibody
- inhibitory effect of exogenously added sample on binding between GD3 and 4F6 (words, FIG. 5) ([2]; added simultaneously with 4F6 to GD3 100 ng/well): did not
- order of binding strength to 4F6 ([2]; deduced from FIG. 5): GD3>GD3R3>GD3R4
- absorbance OD450-OD620, binding to GD3 antibody 4F6 (GD3 antibody 4F6; 10^9 titer/well): 0.109 and 0.116
- absorbance OD450-OD620, binding to GD3 antibody 4F6 (GD3 antibody 4F6; 10^10 titer/well): 0.14 and 0.102
- absorbance OD450-OD620, binding to GD3 antibody 4F6 (GD3 antibody 4F6; 10^11 titer/well): 0.386 and 0.315
- binding affinity to GD3 antibody 4F6 (words, FIG. 1) (GD3 antibody 4F6; phage clones): strongest binding affinity
- IL-2 production by T-cell-rich lymphocytes ([3]; lymphocytes from GD3-immunized mouse): production of IL-2 has been confirmed
- 3H Thymidine up-take into CTLL2 cells, mean ± SE (4 wells) [3, 5]: 1994 ± 348
- 3H Thymidine up-take into CTLL2 cells, mean ± SE (4 wells) [3, 6]: 881 ± 127
- 3H Thymidine up-take into CTLL2 cells, mean ± SE (4 wells) [3, 7]: 5867 ± 1213
- 3H Thymidine up-take into CTLL2 cells, mean ± SE (4 wells) [3, 8]: 3418 ± 749
- 3H Thymidine up-take into CTLL2 cells, mean ± SE (4 wells) [3, 9]: 3248 ± 613
- 3H Thymidine up-take into CTLL2 cells, mean ± SE (4 wells) [3, 10]: 1274 ± 156
- 3H Thymidine up-take into CTLL2 cells, mean ± SE (4 wells) [3, 11]: 12671 ± 1643
- 3H Thymidine up-take into CTLL2 cells, mean ± SE (4 wells) [3, 12]: 8349 ± 1014
- 3H Thymidine up-take into CTLL2 cells, mean ± SE (4 wells) [3, 13]: 7526 ± 839
- 3H Thymidine up-take into CTLL2 cells, mean ± SE (4 wells) [3, 14]: 2684 ± 387
- 3H Thymidine up-take into CTLL2 cells, mean ± SE (4 wells) [3, 15]: 14237 ± 1884
- 3H Thymidine up-take into CTLL2 cells, mean ± SE (4 wells) [3, 16]: 11358 ± 1563
- activation of T cells ([4]; R4-KLH-immunized mice): T cells have been confirmed to have activated
- 3H Thymidine up-take into CTLL2 cells, mean ± SE (4 wells) [4, 5]: 2420 ± 561
- 3H Thymidine up-take into CTLL2 cells, mean ± SE (4 wells) [4, 6]: 1017 ± 182
- 3H Thymidine up-take into CTLL2 cells, mean ± SE (4 wells) [4, 7]: 6781 ± 1549
- 3H Thymidine up-take into CTLL2 cells, mean ± SE (4 wells) [4, 8]: 4413 ± 854
- 3H Thymidine up-take into CTLL2 cells, mean ± SE (4 wells) [4, 9]: 7934 ± 1031
- 3H Thymidine up-take into CTLL2 cells, mean ± SE (4 wells) [4, 10]: 2742 ± 751
- 3H Thymidine up-take into CTLL2 cells, mean ± SE (4 wells) [4, 11]: 15383 ± 2194
- 3H Thymidine up-take into CTLL2 cells, mean ± SE (4 wells) [4, 12]: 10375 ± 1708
- 3H Thymidine up-take into CTLL2 cells, mean ± SE (4 wells) [4, 13]: 8354 ± 957
- 3H Thymidine up-take into CTLL2 cells, mean ± SE (4 wells) [4, 14]: 3058 ± 568
- 3H Thymidine up-take into CTLL2 cells, mean ± SE (4 wells) [4, 15]: 18692 ± 2310
- 3H Thymidine up-take into CTLL2 cells, mean ± SE (4 wells) [4, 16]: 12657 ± 1624
